In patent US20090318370A1, “NOVEL GLYCOCONJUGATED CHLORIN DERIVATIVES AND METHOD OF PRODUCING THE SAME” (REI Medical Co., Ltd., priority 2007, published 2009):

How the values were obtained:
HeLa cells [1] = assay: Evaluation of phototoxicity: WST-8 cell viability after light exposure (16 J/cm^2, halogen lamp, 500 nm cut-off filter); format: cell-based; settings: light 16 J/cm^2
Method: HeLa cells were plated in a 96-well plate to give a concentration of 5×10^3 cells/well (medium volume: 100 μL), and the plate was incubated at 37° C. in 5% CO2 atmosphere for 24 hours. To each well was added 100 μL of a drug solution containing 2% dimethylsulfoxide to give a certain concentration. The plate was further incubated at 37° C. in 5% CO2 atmosphere for 24 hours. Then, the medium was discarded and the cells were washed twice with phosphate buffered saline (100 μL). To each well was added 100 μL of Dulbecco's modified Eagle's medium (DMEM) containing 10% fetal calf serum (FCS). The cells were then exposed to light (16 J/cm^2) from a 100 W halogen lamp equipped with a 500 nm cut-off filter and a water jacket. After that, the plate was further incubated at 37° C. in 5% CO2 for 24 hours. And the plate was subjected to WST-8 assay and cell viability rates were calculated as relative values to those obtained in the absence of drugs. The average values of the result from 6 replicate experiments for each drug were calculated.
The light dose was adjusted by controlling the irradiation time by using a power meter.
WST assay is one of the method to determine the activity of dehydrogenase of cells, in which tetrazolium salt (WST-8) is reduced dependently on the number of viable cells. The amount of the reduction was determined by absorption spectroscopy to provide the relative amount of viable cells.
Phototoxicity were determined for the chlorin derivatives or porphyrin derivatives which were prepared in the above Example and Comparative Example and obtained as production intermediates, and the compound from Reference Example at a drug concentration of 0.5 μM according to the above evaluation method.
For the compounds No. 6 to 9 and 14 to 16 shown in Table 1, phototoxicity was determined at a drug concentration of 0.09 μM according to the above evaluation method.

HeLa cells [2] = settings: non-patent reference 1; cited from earlier work
some cells = settings: non patent reference 2; cited from earlier work
[3] = drug concentration 0.5 μM, FIG. 3
[4] = drug concentration 0.09 μM, FIG. 4

Compound | phototoxicity compared with commercially available TPPS (No. 14) (HeLa cells [1]; [3]) | phototoxicity of acetyl-protected compound compared with No. 6, 7, 8, 9 respectively (HeLa cells [1]; [3]) | effect of sugar linkage on phototoxicity (HeLa cells [1]; [4]) | phototoxicity compared with non-glycoconjugated compound (No. 1, 2, 3, 4 respectively) (HeLa cells [1]; [3]) | also measured
5,10,15,20-tetrakis[3-(β-D-glucopyranosyloxy)phenyl]chlorin [compound 15] | higher phototoxicity |  |  |  | cytotoxicity by irradiation with light (HeLa cells [2]): show cytotoxicity by irradiation with light; cytotoxicity in the dark (HeLa cells [2]): no cytotoxicity is found in the dark
5,10,15,20-tetrakis[4-(2,3,4,6-tetra-O-acetyl-β-D-glucopyranosylthio)-2,3,5,6-tetrafluorophenyl]-2,3-[methano(N-methyl)iminomethano]chlorin [compound 12] |  | phototoxicity was disappeared |  |  | 
OC[C@H]1OC(Sc2c(F)c(F)c(-c3c4nc(c(-c5c(F)c(F)c(SC6O[C@H](CO)[C@@H](O)[C@H](O)[C@H]6O)c(F)c5F)c5ccc([nH]5)c(-c5c(F)c(F)c(SC6O[C@H](CO)[C@@H](O)[C@H](O)[C@H]6O)c(F)c5F)c5nc(c(-c6c(F)c(F)c(SC7O[C@H](CO)[C@@H](O)[C@H](O)[C@H]7O)c(F)c6F)c6ccc3[nH]6)C=C5)C=C4)c(F)c2F)[C@H](O)[C@@H](O)[C@@H]1O (some centres unmarked) [5,10,15,20-tetrakis(4,1′-thio-glucosyl-2,3,5,6-tetrafluorophenyl)porphyrin] |  |  |  |  | cell death with irradiation of light (some cells): cell death can be observed with irradiation of light
CN1CC2c3nc(c(-c4c(F)c(F)c(F)c(F)c4F)c4ccc([n-]4)c(-c4c(F)c(F)c(F)c(F)c4F)c4nc(c(-c5c(F)c(F)c(F)c(F)c5F)c5ccc([n-]5)c3-c3c(F)c(F)c(F)c(F)c3F)C=C4)C2C1.[Pd+2] (centres unmarked) [compound 4, {5,10,15,20-tetrakis(pentafluorophenyl)-2,3-[methano(N-methyl)iminomethano]chlorinato}palladium] |  |  |  |  | phototoxicity of metal complex compared with compound No. 3 (HeLa cells [1]; [3]): phototoxicity increased
OC[C@H]1O[C@@H](Sc2c(F)c(F)c(-c3c4nc(c(-c5c(F)c(F)c(S[C@@H]6O[C@H](CO)[C@@H](O)[C@H](O)[C@H]6O)c(F)c5F)c5ccc([nH]5)c(-c5c(F)c(F)c(S[C@@H]6O[C@H](CO)[C@@H](O)[C@H](O)[C@H]6O)c(F)c5F)c5nc(c(-c6c(F)c(F)c(S[C@@H]7O[C@H](CO)[C@@H](O)[C@H](O)[C@H]7O)c(F)c6F)c6ccc3[nH]6)C=C5)C=C4)c(F)c2F)[C@H](O)[C@@H](O)[C@@H]1O [compound 6, 5,10,15,20-tetrakis[4-(β-D-glucopyranosylthio)-2,3,5,6-tetrafluorophenyl]porphyrin, reference compound] | higher phototoxicity |  | did not result in any improvement effect of phototoxicity | higher phototoxicity | 
OCC1OC(Sc2c(F)c(F)c(-c3c4nc(c(-c5c(F)c(F)c(SC6OC(CO)C(O)C(O)C6O)c(F)c5F)c5ccc([n-]5)c(-c5c(F)c(F)c(SC6OC(CO)C(O)C(O)C6O)c(F)c5F)c5nc(c(-c6c(F)c(F)c(SC7OC(CO)C(O)C(O)C7O)c(F)c6F)c6ccc3[n-]6)C=C5)C=C4)c(F)c2F)C(O)C(O)C1O.[Pd+2] [compound 7, {5,10,15,20-tetrakis[4-(β-D-glucopyranosylthio)-2,3,5,6-tetrafluorophenyl]porphyrinato}palladium (II), reference compound] | higher phototoxicity |  | did not result in any improvement effect of phototoxicity | higher phototoxicity | 
CN1C[C@@H]2c3nc(c(-c4c(F)c(F)c(S[C@@H]5O[C@H](CO)[C@@H](O)[C@H](O)[C@H]5O)c(F)c4F)c4ccc([nH]4)c(-c4c(F)c(F)c(S[C@@H]5O[C@H](CO)[C@@H](O)[C@H](O)[C@H]5O)c(F)c4F)c4nc(c(-c5c(F)c(F)c(S[C@@H]6O[C@H](CO)[C@@H](O)[C@H](O)[C@H]6O)c(F)c5F)c5ccc([nH]5)c3-c3c(F)c(F)c(S[C@@H]5O[C@H](CO)[C@@H](O)[C@H](O)[C@H]5O)c(F)c3F)C=C4)[C@@H]2C1 [compound 8, 5,10,15,20-tetrakis[4-(β-D-glucopyranosylthio)-2,3,5,6-tetrafluorophenyl]-2,3-[methano(N-methyl)iminomethano]chlorin] | higher phototoxicity |  | distinguished improvement of phototoxicity | higher phototoxicity | phototoxicity compared with O-glycosylated chlorin derivative No. 15 (HeLa cells [1]; [4]): higher phototoxicity; phototoxicity compared with galactose-linked derivative No. 16 (HeLa cells [1]; drug concentration 0.09 μM, FIG. 5): higher phototoxicity; phototoxicity compared with No. 6, 7 and No. 15 (HeLa cells [1]; drug concentration 0.5 μM): no difference in phototoxicity; phototoxicity compared with O-glycosylated chlorin derivative No. 15 (HeLa cells [1]; drug concentration 0.5 μM): not any differences in phototoxicity
CN1CC2c3nc(c(-c4c(F)c(F)c(SC5OC(CO)C(O)C(O)C5O)c(F)c4F)c4ccc([n-]4)c(-c4c(F)c(F)c(SC5OC(CO)C(O)C(O)C5O)c(F)c4F)c4nc(c(-c5c(F)c(F)c(SC6OC(CO)C(O)C(O)C6O)c(F)c5F)c5ccc([n-]5)c3-c3c(F)c(F)c(SC5OC(CO)C(O)C(O)C5O)c(F)c3F)C=C4)C2C1.[Pd+2] [compound 9, {5,10,15,20-tetrakis[4-(β-D-glucopyranosylthio)-2,3,5,6-tetrafluorophenyl]-2,3-[methano(N-methyl)iminomethano]chlorinato}palladium (II)] | higher phototoxicity |  | distinguished improvement of phototoxicity | higher phototoxicity | phototoxicity compared with O-glycosylated chlorin derivative No. 15 (HeLa cells [1]; [4]): higher phototoxicity; phototoxicity compared with No. 6, 7 and No. 15 (HeLa cells [1]; drug concentration 0.5 μM): no difference in phototoxicity; phototoxicity compared with O-glycosylated chlorin derivative No. 15 (HeLa cells [1]; drug concentration 0.5 μM): not any differences in phototoxicity
CC(=O)OC[C@H]1O[C@@H](Sc2c(F)c(F)c(-c3c4nc(c(-c5c(F)c(F)c(S[C@@H]6O[C@H](COC(C)=O)[C@@H](OC(C)=O)[C@H](OC(C)=O)[C@H]6OC(C)=O)c(F)c5F)c5ccc([nH]5)c(-c5c(F)c(F)c(S[C@@H]6O[C@H](COC(C)=O)[C@@H](OC(C)=O)[C@H](OC(C)=O)[C@H]6OC(C)=O)c(F)c5F)c5nc(c(-c6c(F)c(F)c(S[C@@H]7O[C@H](COC(C)=O)[C@@H](OC(C)=O)[C@H](OC(C)=O)[C@H]7OC(C)=O)c(F)c6F)c6ccc3[nH]6)C=C5)C=C4)c(F)c2F)[C@H](OC(C)=O)[C@@H](OC(C)=O)[C@@H]1OC(C)=O [compound 10, 5,10,15,20-tetrakis(4-(2,3,4,6-tetra-O-acetyl-β-D-glucopyranosylthio)-2,3,5,6-tetrafluorophenyl)porphyrin, reference compound] |  | phototoxicity was disappeared |  |  | 
CC(=O)OCC1OC(Sc2c(F)c(F)c(-c3c4nc(c(-c5c(F)c(F)c(SC6OC(COC(C)=O)C(OC(C)=O)C(OC(C)=O)C6OC(C)=O)c(F)c5F)c5ccc([n-]5)c(-c5c(F)c(F)c(SC6OC(COC(C)=O)C(OC(C)=O)C(OC(C)=O)C6OC(C)=O)c(F)c5F)c5nc(c(-c6c(F)c(F)c(SC7OC(COC(C)=O)C(OC(C)=O)C(OC(C)=O)C7OC(C)=O)c(F)c6F)c6ccc3[n-]6)C=C5)C=C4)c(F)c2F)C(OC(C)=O)C(OC(C)=O)C1OC(C)=O.[Pd+2] [compound 11, {5,10,15,20-tetrakis[4-(2,3,4,6-tetra-O-acetyl-β-D-glucopyranosylthio)-2,3,5,6-tetrafluorophenyl]porphyrinato}palladium (II), reference compound] |  | phototoxicity was disappeared |  |  | 
CC(=O)OCC1OC(Sc2c(F)c(F)c(-c3c4nc(c(-c5c(F)c(F)c(SC6OC(COC(C)=O)C(OC(C)=O)C(OC(C)=O)C6OC(C)=O)c(F)c5F)c5ccc([n-]5)c(-c5c(F)c(F)c(SC6OC(COC(C)=O)C(OC(C)=O)C(OC(C)=O)C6OC(C)=O)c(F)c5F)c5nc(c(-c6c(F)c(F)c(SC7OC(COC(C)=O)C(OC(C)=O)C(OC(C)=O)C7OC(C)=O)c(F)c6F)c6ccc3[n-]6)C3CN(C)CC53)C=C4)c(F)c2F)C(OC(C)=O)C(OC(C)=O)C1OC(C)=O.[Pd+2] [compound 13, {5,10,15,20-tetrakis[4-(2,3,4,6-tetra-O-acetyl-β-D-glucopyranosylthio)-2,3,5,6-tetrafluorophenyl]-2,3-[methano(N-methyl)iminomethano]chlorinato}palladium (II)] |  | phototoxicity was disappeared |  |  | 
CN1CC2c3nc(c(-c4c(F)c(F)c(S[C@@H]5O[C@H](CO)[C@H](O)[C@H](O)[C@H]5O)c(F)c4F)c4ccc([nH]4)c(-c4c(F)c(F)c(S[C@@H]5O[C@H](CO)[C@H](O)[C@H](O)[C@H]5O)c(F)c4F)c4nc(c(-c5c(F)c(F)c(S[C@@H]6O[C@H](CO)[C@H](O)[C@H](O)[C@H]6O)c(F)c5F)c5ccc([nH]5)c3-c3c(F)c(F)c(S[C@@H]5O[C@H](CO)[C@H](O)[C@H](O)[C@H]5O)c(F)c3F)C=C4)C2C1 (stereo partly drawn) [compound 16, 5,10,15,20-tetrakis[4-(β-D-galactopyranosylthio)-2,3,5,6-tetrafluorophenyl]-2,3-[methano(N-methyl)iminomethano]chlorin] | higher phototoxicity |  |  |  | 
